Source: US4315939A, “Piperidine derivatives of 4,5-dialkyl-3-hydroxy-pyrrole-2-carboxylic acid esters, pharmaceutical formulations containing these compounds and use in treating cardiac arrhythmias” (priority 1979, dated 1982)
Structures can show the parent of a compound that is named as a salt.

Experiments:
Assay type in all cases: in vivo, rats (Sprague Dawley)
[1] = tested on: aconitine-induced arrhythmia of rats; assay: Anti-arrhythmic effect on aconitine-induced arrhythmia in rats, oral administration; settings: for ED50 / Emax: Rattus norvegicus, po; for ED50: read-out: ED 50% (dose which lengthens the duration of aconitine infusion by 50%); for Emax: read-out: R.M.E. = relative maximum effect; for Maximum effect: lengthening of the duration of aconitine infusion, Δ%: at the maximum tolerated dose, oral, rats; for anti-arrhythmic activity compared with Prajmalium: in words, aconitine-induced arrhythmia of rats; for R.A. = relative activity: relative to Prajmalium = 1.00, from ED 50%
Method: (§1) To determine the anti-arrhythmic activity, the substances are administered orally to rats (Sprague Dawley, weight 200-250 g), 45 minutes before narcosis.
(§2) The animals are narcotized with sodium thiobutabarbital (100 mg/kg administered intraperitoneally). The arrhythmogenic substance used is aconitine, which is infused intravenously, at a rate of 0.005 mg/kg×min 60 minutes after the administration of the anti-arrhythmicagent. In untreated animals (N=52), arrhythmias manifest themselves in the electrocardiogram (ECG) after 2.74±0.07 min, and the occurrence of these can be delayed by the anti-arrhythmic agents, the delay being dependent on the dose.
The dose which lengthens the duration of infusion up to the occurrence of arrhythmias by 50%, namely the ED 50%, is determined from the linear relationships between log dose (mg/kg) of the test substance and the relative increase in the duration of aconitine infusion (Δ%).
(§3) For further characterization of the substances, the anti-arrhythmic effect of the maximum tolerated dose is determined from the decimal-geometric dose progression (factor 3.cuberoot.10) employed in the experiments. Furthermore, the dose at which toxic symptoms (changes in the initial ECG, cyanosis and cramps) occur is determined.
^(1) Dose which lengthens the duration of aconitine infusion by 50%
^(2) R.A. = relative activity. Prajmalium = 1.00
(§4) ^(3) Effect of the maximum tolerated dose
^(4) Lengthening of the duration of aconitin infusion, Δ %
^(5) R.M.E. = relative maximum effect, Prajmalium = 1.00

[2] = Toxicity / toleration in rats (changes in the initial ECG, cyanosis and cramps), oral administration; set-up: Toxicity: Dose whose administration produces the first toxic symptoms: unit: mg/kg; settings: rat, in vivo; oral, rats; mg/kg printed only over the effective dose columns and in b40 (log dose); read-out: Maximum effect: Dose (maximum tolerated dose)
Method: as §1, §2, §3, §4
(§5) ^(6) Dose whose administration produces the first toxic symptoms

[3] = tested on: rats; assay: as above; set-up: Toxicity: Dose whose administration produces the first toxic symptoms: unit: mg/kg; settings: for Toxicity: Dose whose administration produces the first toxic symptoms / Q (therapeutic range, quotient of the toxic dose and the ED 50%): oral, rats; for Toxicity: Dose whose administration produces the first toxic symptoms: mg/kg printed only over the effective dose columns and in b40 (log dose); for Q (therapeutic range, quotient of the toxic dose and the ED 50%): toxic dose / ED 50%
Method: as §1, §2, §3, §4, §5

| Compound | ED50 [1] | Emax [1] | Maximum effect: lengthening of the duration of aconitine infusion, Δ% [1] | anti-arrhythmic activity compared with Prajmalium [1] | R.A. = relative activity [1] | MTD [2] | Toxicity: Dose whose administration produces the first toxic symptoms [3] | Q (therapeutic range, quotient of the toxic dose and the ED 50%) [3] | toxic dose compared with Prajmalium ([3]; in words) |
| --- | --- | --- | --- | --- | --- | --- | --- | --- | --- |
| CCOC(=O)c1[nH]c(C)c(C)c1OCC(O)CN1CCC(O)(c2ccccc2)CC1 (centres unmarked) [Example 2, 3-[2-hydroxy-3-(4-phenyl-4-hydroxy-piperidino)-propoxy]-4,5-dimethyl-pyrrole-2-carboxylic acid ethyl ester hydrochloride] | 6.23 mg/kg | 98% | 170% | as active as Prajmalium | 0.80 | 21.5 mg/kg | 46.4 | 7.5 |  |
| CCOC(=O)c1[nH]c(C)c(C)c1OCC(O)CN1CCC(O)(c2ccccn2)CC1 (stereo not drawn) [Example 1, 3-[2-hydroxy-3-(4-α-pyridyl-4-hydroxy-piperidino)-propoxy]-4,5-dimethyl-pyrrole-2-carboxylic acid ethyl ester dihydrochloride] | 7.8 mg/kg | 186% | 324% |  | 0.64 | 46.4 mg/kg | 100 | 13 |  |
| COC(=O)c1[nH]c(C)c(C)c1OCC(O)CN1CCC(O)(c2ccccc2)CC1 (centres unmarked) [Example 19, 3-[2-hydroxy-3-(4-phenyl-4-hydroxy-piperidino)-propoxy]-4,5-dimethyl-pyrrole-2-carboxylic acid methyl ester] | 3.38 mg/kg | 174% | 302% | surpass the latter | 1.48 | 21.5 mg/kg | 46.4 | 14 |  |
| CCOC(=O)c1[nH]c(C)c(C)c1OCC(O)CN1CCC(O)(c2ccc(F)cc2)CC1 (centres unmarked) [Example 13, 3-[2-hydroxy-3-(4-(p-fluorophenyl)-4-hydroxy-piperidino)-propoxy]-4,5-dimethylpyrrole-2-carboxylic acid ethyl ester] | 5.93 mg/kg | 86% | 149% | as active as Prajmalium | 0.84 | 21.5 mg/kg | 46.4 | 7.8 |  |
| COC(=O)c1[nH]c(C)c(C)c1OCCCCN1CCC(O)(c2ccccc2)CC1 [Example 11, 3-[4-(4-phenyl-4-hydroxy-piperidino)-butoxy]-4,5-dimethylpyrrole-2-carboxylic acid methyl ester] | 5.54 mg/kg | 177% | 308% | as active as Prajmalium | 0.90 | 21.5 mg/kg | 46.4 | 8.4 |  |
| CCC[N+]12C(O)C(CC)C3CC1C1N(C)c4ccccc4C14CC2C3C4O (centres unmarked) [Prajmalium, N-propylajmalin, reference compound] | 4.99 mg/kg | 100% | 174% |  | 1.00 | 10 mg/kg | 21.5 | 4.3 |  |
| COC(=O)c1[nH]c(C)c(C)c1OCCCN1CCC(O)(c2ccccc2)CC1 [Example 6, 3-[3-(4-phenyl-4-hydroxy-piperidino)-propoxy]-4,5-dimethylpyrrole-2-carboxylic acid methyl ester] | 3.68 mg/kg | 87% | 152% | surpass the latter | 1.36 | 10 mg/kg | 21.5 | 5.8 | of equal toxicity to Prajmalium |
| CCOC(=O)c1[nH]c(C)c(C)c1OCCN1CCC(O)(c2ccccc2)CC1 [Example 10, 3-[2-(4-phenyl-4-hydroxy-piperidino)-ethoxy]-4,5-dimethylpyrrole-2-carboxylic acid ethyl ester] | 2.99 mg/kg | 199% | 347% | surpass the latter | 1.67 | 21.5 mg/kg | 46.4 | 16 |  |
| COC(=O)c1[nH]c(C)c(C)c1OCC(O)CN1CCC(O)(c2ccccn2)CC1 (stereo not drawn) [Example 7, 3-[2-hydroxy-3-(4-α-pyridyl-4-hydroxy-piperidino)-propoxy]-4,5-dimethylpyrrole-2-carboxylic acid methyl ester] | 13.5 mg/kg | 176% | 307% |  | 0.37 | 46.4 mg/kg | 100 | 7.4 |  |
| CCCCc1c(C)[nH]c(C(=O)OCC)c1OCC(O)CN1CCC(O)(c2ccccc2)CC1 (centres unmarked) [Example 21, 3-[2-hydroxy-3-(4-phenyl-4-hydroxy-piperidino)-propoxy]-4-n-butyl-5-methyl-pyrrole-2-carboxylic acid ethyl ester] | 9.85 mg/kg | 99% | 173% |  | 0.51 | 46.4 mg/kg | 100 | 10 |  |
